Source: patent publication US20080021054A1, “COMPOSITIONS AND TREATMENTS FOR INHIBITING KINASE AND/OR HMG-COA REDUCTASE” (priority 2004, published 2008)
Values joined by “and” are separate entries in the source; they are usually repeats but may differ in a detail not shown here. Equal entries are not always repeated.

Test system: oxazolone-induced mouse ear swelling
Assay: Model for inhibition of topical inflammation (oxazolone-induced mouse ear swelling)
Type: in vivo, BALB/c male mice
Settings: topical to right ear, ear thickness 24 hours after oxazolone challenge
Description: Left ears were untreated. The thickness of both ears of each animal was measured with a Dyer model micrometer gauge 24 hours after oxazolone challenge, and the net increase in thickness of right ears versus left ears was calculated for each animal. Percent inhibition was calculated according to the formula: [(Iv-It)/Iv]×100, where Iv and It respectively refer to the average net increase in right ear thickness (mm) for vehicle and candidate compound treated mice.

Row | Structure (SMILES) | % Inh. (dose 2 × 0.3 mg) [%] | % Inh. (dose 2 × 0.3 mg, listed as atorvastatin lactone) | % Inh. (dose 2 × 1 mg) [%] | % Inh. (dose 2 × 2 mg) [%]
1 | CC(C)c1c(C(=O)Nc2ccccc2)c(-c2ccccc2)c(-c2ccc(F)cc2)n1CC[C@@H]1C[C@@H](O)CC(=O)O1 [Atorvastatin lactone] | 40 | 50% and 58% and 40% | 58 | 50
2 | CC(C)c1c(C(=O)Nc2ccccc2)c(-c2ccccc2)c(-c2ccc(F)cc2)n1CC[C@@H](O)C[C@@H](O)CC(=O)O [Atorvastatin sodium] | 9 |  | 31 | 63
3 | CC(C)n1c(/C=C/C(O)CC(O)CC(=O)O)c(-c2ccc(F)cc2)c2ccccc21 (stereo not shown) [Fluvastatin sodium] | 28 |  |  | 
4 | COc1ccc2c(c1)c(CC(=O)O)c(C)n2C(=O)c1ccc(Cl)cc1 [Indomethacin] | 44 |  |  | 
5 | O=C([O-])C[C@H](O)C[C@H](O)/C=C/c1c(C2CC2)nc2ccccc2c1-c1ccc(F)cc1.O=C([O-])C[C@H](O)C[C@H](O)/C=C/c1c(C2CC2)nc2ccccc2c1-c1ccc(F)cc1.[Ca+2] [Pitavastatin calcium] | 9 |  |  | 60
6 | CC[C@H](C)C(=O)O[C@H]1C[C@H](O)C=C2C=C[C@H](C)[C@H](CC[C@@H](O)C[C@@H](O)CC(=O)O)[C@H]21 [Pravastatin sodium] | 24 |  |  | 
7 | CC(C)c1nc(N(C)S(C)(=O)=O)nc(-c2ccc(F)cc2)c1/C=C/[C@@H](O)C[C@@H](O)CC(=O)O [Rosuvastatin sodium] | 20 |  |  | 
